Assay results published in the NIST ThermoML archive (doi:10.1016/j.jct.2015.10.013).
Values joined by “and” are separate entries in the source; they are usually repeats but may differ in a detail not shown here. Equal entries are not always repeated. Numbers after ± are expanded uncertainties.

Legend:
[1] = molar enthalpy of vaporization or sublimation; details: 298.15 K; Crystal; Static calorimetry
[2] = Crystal, Calculated from knudsen effusion weight loss

CN1c2ccccc2Sc2ccccc21 [10-methylphenothiazine]
Details | molar enthalpy [kJ/mol]
[1] | 104 ± 2.3

[2]
Details | vapor or sublimation pressure
337.16 K | 9.9e-05 ± 6e-05 kPa and 9.8e-05 ± 6e-05 kPa and 9.7e-05 ± 6e-05 kPa
339.27 K | 0.000127 ± 6e-05 kPa and 0.000128 ± 6e-05 kPa and 0.000124 ± 6e-05 kPa
341.16 K | 0.000156 ± 6e-05 kPa and 0.000152 ± 6e-05 kPa
343.16 K | 0.000187 ± 6e-05 kPa and 0.000186 ± 6e-05 kPa and 0.000188 ± 6e-05 kPa
345.25 K | 0.000242 ± 6.1e-05 kPa and 0.000237 ± 6.1e-05 kPa and 0.000246 ± 6.1e-05 kPa
347.15 K | 0.000294 ± 6.1e-05 kPa and 0.000295 ± 6.1e-05 kPa and 0.000286 ± 6.1e-05 kPa
349.16 K | 0.000354 ± 6.1e-05 kPa and 0.000353 ± 6.1e-05 kPa and 0.000361 ± 6.1e-05 kPa
351.26 K | 0.000456 ± 6.2e-05 kPa and 0.000445 ± 6.2e-05 kPa and 0.00046 ± 6.2e-05 kPa
353.16 K | 0.000551 ± 6.3e-05 kPa and 0.000553 ± 6.3e-05 kPa and 0.000539 ± 6.3e-05 kPa
355.16 K | 0.000655 ± 6.4e-05 kPa and 0.000671 ± 6.5e-05 kPa
357.26 K | 0.000853 ± 6.7e-05 kPa and 0.00084 ± 6.7e-05 kPa and 0.000822 ± 6.7e-05 kPa
359.15 K | 0.001002 ± 9.3e-05 kPa and 0.001018 ± 9.4e-05 kPa and 0.00102 ± 9.4e-05 kPa
